Data from paper PMC3699650, “Structural Insights into the Abscisic Acid Stereospecificity by the ABA Receptors PYR/PYL/RCAR” (PLoS ONE, 2013).

Tests used:
PYL9 (with HAB1) [1] = target: T1, PYL9 (with HAB1) (Arabidopsis thaliana, UniProt Q84MC7); experiment: HAB1 phosphatase inhibition assay; type: biochemical; conditions: Hepes pH 7.5, 30 °C
T1 construct: PYL9 from E. coli BL21(DE3), pET-28a or pGEX-4T-2 (TEV site), IMAC and SEC, monomer; HAB1 residues 169-511, GST cut by TEV; with Protein phosphatase 2C 16
T1 sequence (Q84MC7 1-187): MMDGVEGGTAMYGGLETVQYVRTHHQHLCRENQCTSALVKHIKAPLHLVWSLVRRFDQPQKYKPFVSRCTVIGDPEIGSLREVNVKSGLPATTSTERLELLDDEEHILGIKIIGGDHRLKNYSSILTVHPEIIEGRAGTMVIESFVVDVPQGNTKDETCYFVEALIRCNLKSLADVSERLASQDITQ
T1 sequence (Q9CAJ0 169-511 partner): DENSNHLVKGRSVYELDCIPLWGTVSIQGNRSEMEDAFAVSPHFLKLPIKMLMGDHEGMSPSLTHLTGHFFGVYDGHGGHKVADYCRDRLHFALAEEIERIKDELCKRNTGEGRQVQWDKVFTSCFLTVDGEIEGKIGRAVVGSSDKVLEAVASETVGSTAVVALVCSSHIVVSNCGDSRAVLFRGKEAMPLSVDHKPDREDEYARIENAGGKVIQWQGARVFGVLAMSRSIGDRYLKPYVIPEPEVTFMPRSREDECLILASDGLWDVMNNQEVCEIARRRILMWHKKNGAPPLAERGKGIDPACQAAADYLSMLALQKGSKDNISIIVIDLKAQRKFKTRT

PYL10 (with HAB1) = target: T2, PYL10 (with HAB1) (Arabidopsis thaliana, UniProt Q8H1R0); experiment: HAB1 phosphatase inhibition assay (phosphopeptide, molybdate); type: biochemical
T2 construct: PYL10 from E. coli BL21(DE3), pET-28a or pGEX-4T-2 (TEV site), IMAC and SEC; HAB1 residues 169-511, GST cut by TEV; with Protein phosphatase 2C 16
T2 sequence (Q8H1R0 1-183): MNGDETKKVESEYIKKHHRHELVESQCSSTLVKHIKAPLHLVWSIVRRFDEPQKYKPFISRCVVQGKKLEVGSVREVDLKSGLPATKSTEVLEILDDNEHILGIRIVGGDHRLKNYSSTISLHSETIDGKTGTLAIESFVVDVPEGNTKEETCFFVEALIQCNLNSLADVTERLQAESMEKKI
T2 sequence (Q9CAJ0 169-511 partner): T1 sequence (Q9CAJ0 169-511 partner)

PYL3 = target: T3, PYL3 (Arabidopsis thaliana, UniProt Q9SSM7); experiment: isothermal titration calorimetry; type: binding; conditions: 20 °C, 20 mM Tris-HCl pH 8.0, 150 mM NaCl; 0.3 mM (−)-ABA into 0.22 mM PYL3
T3 construct: apo mainly dimer
T3 sequence (Q9SSM7 1-209): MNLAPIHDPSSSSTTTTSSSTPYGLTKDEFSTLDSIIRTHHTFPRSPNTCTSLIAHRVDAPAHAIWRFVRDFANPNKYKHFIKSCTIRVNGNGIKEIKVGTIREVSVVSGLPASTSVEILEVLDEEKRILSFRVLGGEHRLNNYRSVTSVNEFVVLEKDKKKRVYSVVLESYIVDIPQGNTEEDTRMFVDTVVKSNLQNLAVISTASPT

PYL9 (with HAB1) [2] = target: T1, PYL9 (with HAB1); experiment: HAB1 phosphatase inhibition assay (phosphopeptide, molybdate); type: biochemical
PYL4 (with HAB1) = target: T4, PYL4 (with HAB1) (Arabidopsis thaliana, UniProt O80920); experiment: as above; type: biochemical
T4 construct: PYL4 from E. coli BL21(DE3), pET-28a or pGEX-4T-2 (TEV site), IMAC and SEC; HAB1 residues 169-511, GST cut by TEV; with Protein phosphatase 2C 16
T4 sequence (O80920 1-207): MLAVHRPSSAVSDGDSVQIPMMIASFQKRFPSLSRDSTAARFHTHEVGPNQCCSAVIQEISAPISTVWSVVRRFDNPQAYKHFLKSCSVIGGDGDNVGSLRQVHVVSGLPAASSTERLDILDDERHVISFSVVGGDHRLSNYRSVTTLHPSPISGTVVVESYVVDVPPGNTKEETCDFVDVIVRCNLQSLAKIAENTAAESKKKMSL
T4 sequence (Q9CAJ0 169-511 partner): T1 sequence (Q9CAJ0 169-511 partner)

PYL5 (with HAB1) = target: T5, PYL5 (with HAB1) (Arabidopsis thaliana, UniProt Q9FLB1); experiment: as above; type: biochemical
T5 construct: PYL5 from E. coli BL21(DE3), pET-28a or pGEX-4T-2 (TEV site), IMAC and SEC, monomer; HAB1 residues 169-511, GST cut by TEV; with Protein phosphatase 2C 16
T5 sequence (Q9FLB1 1-203): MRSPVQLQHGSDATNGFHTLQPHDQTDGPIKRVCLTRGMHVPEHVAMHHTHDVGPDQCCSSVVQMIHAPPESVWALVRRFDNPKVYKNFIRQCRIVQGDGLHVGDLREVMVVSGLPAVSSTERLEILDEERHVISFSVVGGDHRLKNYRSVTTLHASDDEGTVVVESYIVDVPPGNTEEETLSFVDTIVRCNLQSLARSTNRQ
T5 sequence (Q9CAJ0 169-511 partner): T1 sequence (Q9CAJ0 169-511 partner)

PYL1 (with HAB1) = target: T6, PYL1 (with HAB1) (Arabidopsis thaliana, UniProt Q8VZS8); experiment: as above; type: biochemical
T6 construct: PYL1 from E. coli BL21(DE3), pET-28a or pGEX-4T-2 (TEV site), IMAC and SEC; HAB1 residues 169-511, GST cut by TEV; with Protein phosphatase 2C 16
T6 sequence (Q8VZS8 2-221): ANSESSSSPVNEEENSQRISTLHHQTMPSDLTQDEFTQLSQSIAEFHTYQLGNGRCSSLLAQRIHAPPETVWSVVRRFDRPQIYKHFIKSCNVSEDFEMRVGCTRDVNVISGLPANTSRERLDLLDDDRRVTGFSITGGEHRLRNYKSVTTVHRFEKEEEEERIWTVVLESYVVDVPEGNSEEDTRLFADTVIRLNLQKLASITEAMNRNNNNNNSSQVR
T6 sequence (Q9CAJ0 169-511 partner): T1 sequence (Q9CAJ0 169-511 partner)

PYL8 (with HAB1) = target: T7, PYL8 (with HAB1) (Arabidopsis thaliana, UniProt Q9FGM1); experiment: as above; type: biochemical
T7 construct: PYL8 from E. coli BL21(DE3), pET-28a or pGEX-4T-2 (TEV site), IMAC and SEC; HAB1 residues 169-511, GST cut by TEV; with Protein phosphatase 2C 16
T7 sequence (Q9FGM1 1-188): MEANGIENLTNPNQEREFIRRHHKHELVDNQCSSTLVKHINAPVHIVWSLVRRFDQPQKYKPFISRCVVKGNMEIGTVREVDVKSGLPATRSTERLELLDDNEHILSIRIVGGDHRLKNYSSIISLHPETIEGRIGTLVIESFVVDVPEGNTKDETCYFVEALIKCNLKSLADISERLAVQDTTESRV
T7 sequence (Q9CAJ0 169-511 partner): T1 sequence (Q9CAJ0 169-511 partner)

PYL2 (with HAB1) = target: T8, PYL2 (with HAB1) (Arabidopsis thaliana, UniProt O80992); experiment: as above; type: biochemical
T8 construct: PYL2 from E. coli BL21(DE3), pET-28a or pGEX-4T-2 (TEV site), IMAC and SEC; HAB1 residues 169-511, GST cut by TEV; with Protein phosphatase 2C 16
T8 sequence (O80992 1-190): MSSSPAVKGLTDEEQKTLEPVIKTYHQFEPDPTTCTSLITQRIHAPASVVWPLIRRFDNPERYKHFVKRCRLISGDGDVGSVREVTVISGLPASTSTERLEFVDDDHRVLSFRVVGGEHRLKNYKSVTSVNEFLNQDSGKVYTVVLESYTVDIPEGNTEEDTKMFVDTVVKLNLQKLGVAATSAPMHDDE
T8 sequence (Q9CAJ0 169-511 partner): T1 sequence (Q9CAJ0 169-511 partner)

PYL6 (with HAB1) = target: T9, PYL6 (with HAB1) (Arabidopsis thaliana, UniProt Q8S8E3); experiment: as above; type: biochemical
T9 construct: PYL6 from E. coli BL21(DE3), pET-28a or pGEX-4T-2 (TEV site), IMAC and SEC; HAB1 residues 169-511, GST cut by TEV; with Protein phosphatase 2C 16
T9 sequence (Q8S8E3 1-215): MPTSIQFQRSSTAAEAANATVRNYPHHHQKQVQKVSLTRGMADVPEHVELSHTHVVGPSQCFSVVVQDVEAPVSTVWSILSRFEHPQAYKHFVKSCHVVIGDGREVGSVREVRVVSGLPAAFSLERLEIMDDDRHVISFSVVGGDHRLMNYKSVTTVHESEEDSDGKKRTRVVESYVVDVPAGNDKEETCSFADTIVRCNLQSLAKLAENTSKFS
T9 sequence (Q9CAJ0 169-511 partner): T1 sequence (Q9CAJ0 169-511 partner)

PYR1 (with HAB1) = target: T10, PYR1 (with HAB1) (Arabidopsis thaliana, UniProt O49686); experiment: as above; type: biochemical
T10 construct: PYR1 from E. coli BL21(DE3), pET-28a or pGEX-4T-2 (TEV site), IMAC and SEC; HAB1 residues 169-511, GST cut by TEV; with Protein phosphatase 2C 16
T10 sequence (O49686 1-191): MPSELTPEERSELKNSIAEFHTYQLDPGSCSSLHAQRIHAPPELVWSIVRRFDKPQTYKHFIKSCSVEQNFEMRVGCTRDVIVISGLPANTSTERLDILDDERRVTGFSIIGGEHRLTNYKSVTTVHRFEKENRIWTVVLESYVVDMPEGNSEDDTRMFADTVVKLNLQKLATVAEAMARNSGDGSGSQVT
T10 sequence (Q9CAJ0 169-511 partner): T1 sequence (Q9CAJ0 169-511 partner)

Row | SMILES | HAB1 phosphatase inhibition assay (PYL9 (with HAB1) [1]) | IC50 (PYL10 (with HAB1)) [nM] | binding affinity (PYL3) | IC50 (PYL9 (with HAB1) [2]) [nM] | IC50 (PYL4 (with HAB1)) [nM] | IC50 (PYL5 (with HAB1)) [nM] | IC50 (PYL1 (with HAB1)) [nM] | IC50 (PYL8 (with HAB1)) [nM] | IC50 (PYL2 (with HAB1)) [nM] | IC50 (PYL6 (with HAB1)) [nM] | IC50 (PYR1 (with HAB1)) [nM]
1 | CC1=CC(=O)CC(C)(C)[C@@]1(O)/C=C/C(C)=C/C(=O)O [(+)-ABA] | PYL9 can inhibit HAB1 in the presence of (+)-ABA | – | – | – | – | – | – | – | – | – | –
2 | CC1=CC(=O)CC(C)(C)[C@]1(O)/C=C/C(C)=C\C(=O)O [(−)-ABA] | – | 15000 | ITC results showed that the binding affinity of (−)-ABA to PYL3 was less | > 10000 | 480 | 170 | 3100 | 1600 | 2500 | 470 | 4500
